{"source": "patent US8802700B2", "about": "(Vertex Pharmaceuticals Incorporated, priority 2010, dated 2014)", "target": "T1, ΔF508-CFTR (Homo sapiens, UniProt P13569, DEL508-508)", "T1 construct": "expressed in transfected cells", "T1 sequence (P13569 with tags, fused parts or gaps DEL508-508)": "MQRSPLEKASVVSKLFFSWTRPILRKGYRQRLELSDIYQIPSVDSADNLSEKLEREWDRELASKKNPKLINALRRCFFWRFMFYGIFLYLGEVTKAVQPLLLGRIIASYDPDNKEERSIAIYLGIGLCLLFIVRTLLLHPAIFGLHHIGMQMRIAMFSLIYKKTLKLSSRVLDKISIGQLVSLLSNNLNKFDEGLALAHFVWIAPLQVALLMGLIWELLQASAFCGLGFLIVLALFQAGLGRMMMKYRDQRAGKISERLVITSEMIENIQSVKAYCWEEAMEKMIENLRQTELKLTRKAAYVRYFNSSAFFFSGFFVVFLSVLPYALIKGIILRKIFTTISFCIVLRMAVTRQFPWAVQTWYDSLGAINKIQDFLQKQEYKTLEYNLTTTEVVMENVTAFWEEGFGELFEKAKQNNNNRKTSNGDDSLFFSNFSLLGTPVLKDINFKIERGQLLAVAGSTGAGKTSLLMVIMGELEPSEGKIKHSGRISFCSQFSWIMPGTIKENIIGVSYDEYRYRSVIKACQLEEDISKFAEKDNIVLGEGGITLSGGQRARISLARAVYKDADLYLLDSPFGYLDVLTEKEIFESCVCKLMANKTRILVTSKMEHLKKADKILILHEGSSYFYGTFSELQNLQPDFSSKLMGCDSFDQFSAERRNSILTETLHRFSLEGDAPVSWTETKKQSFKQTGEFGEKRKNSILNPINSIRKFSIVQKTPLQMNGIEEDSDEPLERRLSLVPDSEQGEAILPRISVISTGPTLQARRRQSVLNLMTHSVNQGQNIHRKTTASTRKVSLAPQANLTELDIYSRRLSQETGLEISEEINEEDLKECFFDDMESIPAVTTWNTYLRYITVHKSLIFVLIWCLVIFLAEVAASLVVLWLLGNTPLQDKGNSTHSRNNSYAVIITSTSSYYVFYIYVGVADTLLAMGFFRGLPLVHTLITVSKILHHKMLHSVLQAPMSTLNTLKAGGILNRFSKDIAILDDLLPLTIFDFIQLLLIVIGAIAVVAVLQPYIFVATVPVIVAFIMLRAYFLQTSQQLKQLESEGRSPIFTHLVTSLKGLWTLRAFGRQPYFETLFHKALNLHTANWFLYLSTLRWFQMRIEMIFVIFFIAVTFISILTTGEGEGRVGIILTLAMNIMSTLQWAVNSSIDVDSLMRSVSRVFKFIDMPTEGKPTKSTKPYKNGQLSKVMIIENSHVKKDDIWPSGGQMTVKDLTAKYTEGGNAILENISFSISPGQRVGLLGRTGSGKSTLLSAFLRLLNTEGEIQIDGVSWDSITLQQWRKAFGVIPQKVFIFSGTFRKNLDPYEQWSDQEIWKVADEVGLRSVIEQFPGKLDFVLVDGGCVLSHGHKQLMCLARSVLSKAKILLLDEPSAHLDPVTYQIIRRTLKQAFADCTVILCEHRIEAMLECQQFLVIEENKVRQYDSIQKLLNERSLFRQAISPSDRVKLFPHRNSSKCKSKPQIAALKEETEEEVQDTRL", "assay": "Membrane potential optical assay (FRET voltage-sensor dyes, VIPR), identification of potentiator compounds", "assay_type": "cell-based", "conditions": "Table 3, assay not given; for Emax: read-out: % Activity (% Efficacy, relative efficacy)", "outline": "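Potentiator screen measured membrane potential via FRET between CC2-DMPE donor and DiSBAC2(3), read on VIPR II. Compound went in with the first addition of chloride-free gluconate bath; cells were ΔF508-CFTR-expressing NIH3T3 mouse fibroblasts, temperature-corrected at 27 °C for 24 h.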", "note": "pEC50: −log10 of the molar value.", "data": [{"smiles": "Cc1ccc2[nH]cc(C(=O)Nc3ccc(N4CCC(C)(C)C4)cc3C(F)(F)F)c(=O)c2c1", "note": "[Compound 489, N-[4-(3,3-dimethylpyrrolidin-1-yl)-2-(trifluoromethyl)phenyl]-6-methyl-4-oxo-1H-quinoline-3-carboxamide]", "values": [{"measurement": "Emax", "result": "25 to 100", "unit": "%"}]}, {"smiles": "COc1cc(NC(=O)c2c[nH]c3ccccc3c2=O)c(C(F)(F)F)cc1C(C)(C)C", "note": "[Compound 421, N-[5-methoxy-4-tert-butyl-2-(trifluoromethyl)phenyl]-4-oxo-1H-quinoline-3-carboxamide]", "values": [{"measurement": "Emax", "result": "25 to 100", "unit": "%"}]}, {"smiles": "O=C(Nc1cccn2ncnc12)c1c[nH]c2ccccc2c1=O", "note": "[Compound 146, 4-oxo-N-(1,7,9-triazabicyclo[4.3.0]nona-2,4,6,8-tetraen-5-yl)-1H-quinoline-3-carboxamide]", "values": [{"measurement": "Emax", "result": "< 25", "unit": "%"}]}, {"smiles": "O=C(Nc1cc(O)cc(C(F)(F)F)c1)c1c[nH]c2cccc(O)c2c1=O", "note": "[Compound 599, 5-hydroxy-N-[3-hydroxy-5-(trifluoromethyl)phenyl]-4-oxo-1H-quinoline-3-carboxamide]", "values": [{"measurement": "Emax", "result": "25 to 100", "unit": "%"}]}, {"smiles": "CC(C)CNC(=O)c1cc2cc[nH]c2cc1NC(=O)c1c[nH]c2ccccc2c1=O", "note": "[Compound 343, N-[5-(Isobutylcarbamoyl)-1H-indol-6-yl]-4-oxo-1H-quinoline-3-carboxamide]", "values": [{"measurement": "Emax", "result": "25 to 100", "unit": "%"}]}, {"smiles": "COC(=O)Nc1cc(NC(=O)c2c[nH]c3ccccc3c2=O)ccc1C(C)(C)C", "note": "[Compound 14, [5-[(4-oxo-1H-quinolin-3-yl)carbonylamino]-2-tert-butyl-phenyl]aminoformic acid methyl ester]", "values": [{"measurement": "Emax", "result": "25 to 100", "unit": "%"}]}, {"smiles": "CC(C)(C)c1ccc(O)cc1NC(=O)c1c[nH]c2ccc(F)cc2c1=O", "note": "[Compound 665, 6-fluoro-N-(5-hydroxy-2-tert-butyl-phenyl)-4-oxo-1H-quinoline-3-carboxamide]", "values": [{"measurement": "Emax", "result": "25 to 100", "unit": "%"}]}, {"smiles": "O=C(Nc1ccc(N2CCCCC2)cc1C(F)(F)F)c1c[nH]c2ccccc2c1=O", "note": "[Compound 686, 4-oxo-N-[4-(1-piperidyl)-2-(trifluoromethyl)phenyl]-1H-quinoline-3-carboxamide]", "values": [{"measurement": "Emax", "result": "25 to 100", "unit": "%"}]}, {"smiles": "CC(C)(C)OC(=O)NCCc1c[nH]c2cc(NC(=O)c3c[nH]c4ccccc4c3=O)ccc12", "note": "[Compound 352, 2-[6-[(4-oxo-1H-quinolin-3-yl)carbonylamino]-1H-indol-3-yl]ethylaminoformic acid tert-butyl ester]", "values": [{"measurement": "Emax", "result": "25 to 100", "unit": "%"}]}, {"smiles": "CC(C)(C)c1cc(C(F)(F)F)c(NC(=O)c2c[nH]c3cccc(O)c3c2=O)cc1O", "note": "[Compound 487, 5-hydroxy-N-[5-hydroxy-4-tert-butyl-2-(trifluoromethyl)phenyl]-4-oxo-1H-quinoline-3-carboxamide]", "values": [{"measurement": "Emax", "result": "25 to 100", "unit": "%"}]}, {"smiles": "CCOC(=O)Cc1c[nH]c2cc(NC(=O)c3c[nH]c4ccccc4c3=O)ccc12", "note": "[Compound 207, 2-[6-[(4-oxo-1H-quinolin-3-yl)carbonylamino]-1H-indol-3-yl]acetic acid ethyl ester]", "values": [{"measurement": "Emax", "result": "25 to 100", "unit": "%"}]}, {"smiles": "O=C(Nc1ccccc1Oc1ccccc1)c1c[nH]c2ccccc2c1=O", "note": "[Compound 413, 4-oxo-N-(2-phenoxyphenyl)-1H-quinoline-3-carboxamide]", "values": [{"measurement": "Emax", "result": "25 to 100", "unit": "%"}]}, {"smiles": "O=C(Nc1ccc(C(F)(F)F)c(O)c1)c1c[nH]c2c(Cl)cccc2c1=O", "note": "[Compound 716, 8-chloro-N-[3-hydroxy-4-(trifluoromethyl)phenyl]-4-oxo-1H-quinoline-3-carboxamide]", "values": [{"measurement": "Emax", "result": "25 to 100", "unit": "%"}]}, {"smiles": "NC(=O)c1cccc(NC(=O)c2c[nH]c3ccccc3c2=O)c1", "note": "[Compound 179, N-(3-carbamoylphenyl)-4-oxo-1H-quinoline-3-carboxamide]", "values": [{"measurement": "Emax", "result": "< 25", "unit": "%"}]}, {"smiles": "CS(=O)(=O)Nc1cc(NC(=O)c2c[nH]c3ccccc3c2=O)cc(C(F)(F)F)c1", "note": "[Compound 441, N-[3-methylsulfonylamino-5-(trifluoromethyl)phenyl]-4-oxo-1H-quinoline-3-carboxamide]", "values": [{"measurement": "pEC50", "result": "> 5.00"}, {"measurement": "Emax", "result": "25 to 100", "unit": "%"}]}, {"smiles": "COC(=O)C1CCCCN1c1ccc(NC(=O)c2c[nH]c3ccccc3c2=O)c(C(F)(F)F)c1", "note": "(centres unmarked) [Compound 492, methyl 1-[4-[(4-oxo-1H-quinolin-3-yl)carbonylamino]-3-(trifluoromethyl)phenyl]piperidine-2-carboxylate]", "values": [{"measurement": "Emax", "result": "> 100", "unit": "%"}]}]}
